Values quoted from earlier work, collected in patent publication US20080044356A1, “Assemblies of Oligomeric Amyloid Beta Protein and Uses Thereof” (Regents of the University of Minnesota, priority 2004, published 2008).
Where two headings read alike, the source gives them in different places.

Experiments:
[1] = system: rats
[2] = system: rats; remark: listed apart in the source
[3] = system: Alzheimer's disease (AD) patients
[4] = animals treated in utero (congenital hypothyroidism), versus controls
[5] = congenitally hypothyroid rats with replacement treatment

Compound: CN1[C@@H]2CC[C@H]1C[C@@H](OC(=O)C(CO)c1ccccc1)C2 (stereo partly shown) [atropine]
- switching errors ([1]; 1.0 mg/kg IP): increases switching errors significantly
- ALCR Cognitive Effect ([1]; route IP): Increased errors
- ALCR Running Response Rate ([1]; route IP): No effect
- ALCR Running Response Rate ([1]; route IP, 1 mg/kg): Reduced

Compound: CC(C)Cc1ccc(C(C)C(=O)O)cc1 (stereo not shown) [ibuprofen]
- effect on Aβ-induced ALCR performance decrements ([1]; after IH injection of pre-aggregated Aβ): mitigated these effects
- ALCR Cognitive Effect ([1]; route PO): Normalized errors
- ALCR Running Response Rate ([1]; route PO): No effect

Compound: Cn1cc[nH]c1=S [methimzole, methimazole]
- learning to criterion in the ALCR task [1, 4]: significantly slower learning to criterion
- ALCR Cognitive Effect ([1]; route PO): Slow learning
- ALCR Running Response Rate ([1]; route PO): No effect
- motivation for food in the PR task [2, 4]: not different from that of controls
- Direct test of Motivation ([2]; route PO, FOA, PR assessments): No effect

Compound: N[C@@H](Cc1cc(I)c(Oc2cc(I)c(O)c(I)c2)c(I)c1)C(=O)O [thyroxin, thyroxine]
- learning to criterion and error rates in the ALCR task [1, 5]: normal learning to criterion and error rates
- motivation for food in the PR task [2, 5]: performed equally well

Compound: AN-1792: beta amyloid peptide 1-42, used for active immunization
- adverse reaction to active immunization ([3]; human, in vivo): risk of encephalitis
- cognitive function ([3]; immunization, subset of AD patients): encouraging preliminary reports
